Results published in patent publication US20220192985A1, “METHOD OF PRODUCTION OF A COMPOSITE OF YEAST-DERIVED BETA GLUCAN PARTICLE WITH INCORPORATED POORLY-WATER-SOLUBLE LOW-MOLECULAR-WEIGHT COMPOUND, PHARMACEUTICAL PREPARATION AND USE THEREOF” (VYSOKA SKOLA CHEMICKO-TECHNOLOGICKA V PRAZE, priority 2019, published 2022).

Assays:
Type in all cases: physicochemical
[1] = Powder rheology shear test (FT4), Example 8; conditions: pre-sheared at 3 kPa; ATO/GP mass ratio 25%
Protocol: (§1) The moisture (water content) of the samples was firstly measure using a moisture analysis balance (simple test, 100° C., 5 mg initial mass, infrared drying). […] The samples were then dried for 24 hours in the oven with very-slowly-moving fan at 30° C. Finally, a shear test (FIG. 15) was performed on the samples a Powder Rheometer FT4 (pre-sheared at 3 kPa consolidation and initial mass of 0.6-0.7 g).

[2] = Moisture (water content), moisture analysis balance; conditions: first measurement, 100° C. infrared drying
Protocol: as §1

[3] = Powder rheology shear test (FT4), Comparative Example 9; conditions: pre-sheared at 3 kPa, mass ratio 10%
Protocol: Shear tests were performed on the samples a Powder Rheometer FT4 (pre-sheared at 3 kPa consolidation and initial mass of 0.6-0.7 g). The tests were carried out per duplicate under laboratory conditions (21.2±0.7° C. and 35.1±2.0% relative humidity).

[4] = Dissolution test of (IBU+ASA)/GP, crude IBU and crude ASA in 10 mM HCl (pH 2.0); conditions: 10 mM HCl pH 2.0, room temperature; compared with encapsulated drug
Protocol: Dissolution tests (FIG. 11) were performed for crude micronized ibuprofen, crude acetylsalicylic acid and for the produced (IBU+ASA)/GP composite particles, in powder form and using 10 mM HCl (pH 2.0) as dissolution medium. For that, 20.0 mg of crude drug (IBU or ASA) or 100.0 mg of (IBU+ASA)/GP composite, were added to 200 mL of continuously stirred dissolution medium (for a maximum concentration of 0.1 mg of drug per ml of medium). The mixtures were continuously stirred at 250 rpm and room temperature in a 250-mL beaker. At pre-defined time-points (ranging from 0 to 60 min), 500 μL of sample were collected, centrifuged and filtered (200-nm pore size filtration membrane), and the concentration was evaluated by high-performance liquid chromatography (HPLC) with UV detection (Agilent), coupled with C18 column (100 mm×4.6 mm, 5 μm) and mobile phase consisting of 0.01 M ammonium phosphate buffer (pH 2.0) and acetonitrile, in gradient according to the Table 2: […]

Row | Compound | AIF (Angle of Internal Friction) [1] [°] | Cohesion [1] [kPa] | moisture (water content) [2] [% wt.] | Cohesion ([3]; 21.2±0.7° C., 35.1±2.0% relative humidity) [kPa] | AIF (Angle of Internal Friction) [3] [°] | Category (flowability) [3] | FF (Flow Function) [3] | dissolution rate [4]
1 | CC(C)c1c(C(=O)Nc2ccccc2)c(-c2ccccc2)c(-c2ccc(F)cc2)n1CC[C@@H](O)C[C@@H](O)CC(=O)O [Crude ATO, atorvastatin] | 45.3 | 0.879 | 2.5 | 0.81 ± 0.21 | 51.24 ± 0.82 | Cohesive | 2.43 ± 0.48 | 
2 | CC(=O)Oc1ccccc1C(=O)O [crude ASA, acetylsalicylic acid] |  |  |  |  |  |  |  | slower dissolution rates
3 | CC(C)Cc1ccc(C(C)C(=O)O)cc1 (stereo not drawn) [crude IBU, ibuprofen] |  |  |  |  |  |  |  | slower dissolution rates
